Laboratory results published in US4988497A, “Process for the optical determination of lipase” (Boehringer Mannheim GmbH, priority 1985, dated 1991).

How the values were obtained:
[1] = blank change (water instead of sample); format: physicochemical; details: 100 μl water instead of sample; extinction change at 578 nm
Procedure: (§1) 1.2 g. Sodium desoxycholate and 0.15 mg. colipase (from the pig) are dissolved in 60 ml. distilled water, with stirring. A solution of 70 mg. of the lipase substrate 1,2-0-dioctyl-rac-glycero-3-azelaic acid resorufin ester (Example 4) in 1.7 ml. n-propanol are injected herein under pressure in the thinnest possible stream, with vigorous stirring. A solution which, in 200 ml. distilled water, contains 1.5 g. urea, 1 g. sodium desoxycholate, 200 mg. sodium chloride, 800 mg. TRIS and 107 mg. TRIS.HCl, is well mixed with the above-produced emulsion.
(§2) 2.5 ml. of the so produced solution are mixed with 100 μ. of sample (serum). The reaction is monitored photometrically at 578 nm Hg.
The blank change was determined with a reagent according to Example 1 and various lipase substrates. Instead of the sample, 100 μ1. water were added and the extinction change monitored photometrically at 578 nm (ΔmE/min.).

[2] = test system: carboxyl esterase (EC 3.1.1.1); test: esterase sensitivity; format: biochemical; details: for esterase sensitivity (activity 20,000 U/l): 100 μl carboxyl esterase about 20,000 U/l, 578 nm; for Esterase sensitivity: emulsion prepared as in Example 22
Procedure: as §1, §2
For the determination of the esterase sensitivity, instead of the sample there were added 100 μl. carboxyl esterase (EC 3.1.1.1; about 20,000 U/1. Boehringer Mannheim GmbH, Order No. 10 46 98) and the extinction change monitored as described above.

lipase (EC 3.1.1.3) [3] = test: lipase sensitivity; format: biochemical; details: for lipase sensitivity (activity 100 U/l): 100 μl lipase about 100 U/l, 578 nm
Procedure: as §1, §2
For the determination of the lipase sensitivity, instead of the sample there were added 100 μl. lipase (EC 3.1.1.3; about 100 U/1., Boehringer Mannheim GmbH, Order No. 41 45 90) and the extinction change monitored as described above.

[4] = blank change (water instead of sample); format: physicochemical
lipase (EC 3.1.1.3) [5] = test: lipase sensitivity; format: biochemical
[6] = emulsion prepared as in Example 22
[7] = taurodesoxycholate/TRIS reagent pH 7.5, 578 nm
[8] = fluorometric, 25° C., excitation 364 nm, emission 448 nm

Row | blank [1] | esterase sensitivity (activity 20,000 U/l) [2] | lipase sensitivity (activity 100 U/l) (lipase (EC 3.1.1.3) [3]) | Compound | other results
1 | 13.2 ΔmE/min | > 1000 ΔmE/min | – | CCCCCCOCC(COC(=O)CCCC(=O)Oc1ccc2nc3ccc(=O)cc-3oc2c1)OCCCCCC (racemic) [Example 1, 1,2-O-Dihexyl-rac-glycero-3-glutaric acid resorufin ester] | –
2 | 7.0 ΔmE/min | 144.0 ΔmE/min | ~ 100 ΔmE/min | CCCCCCCCOCC(COC(=O)CCCC(=O)Oc1ccc2nc3ccc(=O)cc-3oc2c1)OCCCCCCCC (racemic) [Example 2, 1,2-O-Dioctyl-rac-glycero-3-glutaric acid resorufin ester] | –
3 | 3.9-4.1 ΔmE/min | 112.5 ΔmE/min | 12.28 ΔmE/min | CCCCCCCCOCC(COC(=O)CCCCCC(=O)Oc1ccc2nc3ccc(=O)cc-3oc2c1)OCCCCCCCC (racemic) [Example 3, 1,2-O-dioctyl-rac-glycero-3-pimelic acid resorufin ester] | –
4 | 0.4-0.8 ΔmE/min | 33.6 ΔmE/min | 18.04 ΔmE/min | CCCCCCCCOCC(COC(=O)CCCCCCCC(=O)Oc1ccc2nc3ccc(=O)cc-3oc2c1)OCCCCCCCC (racemic) [Example 4, 1,2-O-dioctyl-rac-glycero-3-azelaic acid resorufin ester] | –
5 | 2.4-3.0 ΔmE/min | 30.2 ΔmE/min | 22.18 ΔmE/min | CCCCCCCCCCOCC(COC(=O)CCCC(=O)Oc1ccc2nc3ccc(=O)cc-3oc2c1)OCCCCCCCCCC (racemic) [Example 5, 1,2-O-Didecyl-rac-glycero-3-glutaric acid resorufin ester] | –
6 | 2.0-2.8 ΔmE/min | 23.6 ΔmE/min | 6.96 ΔmE/min | CCCCCCCCCCCOCC(COC(=O)CCCC(=O)Oc1ccc2nc3ccc(=O)cc-3oc2c1)OCCCCCCCCCCC (racemic) [Example 6, 1,2-O-Diundecyl-rac-glycero-3-glutaric acid resorufin ester] | –
7 | 2.4-3.0 ΔmE/min | 34.8 ΔmE/min | 10.9 ΔmE/min | CCCCCCCCCCCCOCC(COC(=O)CCCC(=O)Oc1ccc2nc3ccc(=O)cc-3oc2c1)OCCCCCCCCCCCC (racemic) [Example 7, 1,2-O-Dilauryl-rac-glycero-3-glutaric acid resorufin ester] | –
8 | 2.1-2.4 ΔmE/min | 27.8 ΔmE/min | 4.68 ΔmE/min | CCCCCCCCCCCCOCC(COC(=O)CCCCCC(=O)Oc1ccc2nc3ccc(=O)cc-3oc2c1)OCCCCCCCCCCCC (racemic) [Example 8, 1,2-O-Dilauryl-rac-glycero-3-pimelic acid resorufin ester] | –
9 | 1.3-2.0 ΔmE/min | 48.7 ΔmE/min | 9.8 ΔmE/min | CCCCCCCCCCOCC(COC(=O)CCCCCC(=O)Oc1ccc2nc3ccc(=O)cc-3oc2c1)OCCCCCCCCCC (racemic) [Example 20, 1,2-0-Didecyl-rac-glycero-3-pimelic acid resorufin ester] | –
10 | 9.8-11.9 ΔmE/min | 9.5 ΔmE/min | 13.2 ΔmE/min | CCCCCCCCCCCCOCC(COC(=O)CCCCCCCC(=O)Oc1ccc2nc3ccc(=O)cc-3oc2c1)OCCCCCCCCCCCC (racemic) [Example 21, 1,2-0-Dilauryl-rac-glycero-3-azelaic acid resorufin ester] | –
11 | – | – | – | CCCCCCCCCCCCOCC(COC(=O)CCCCCCCCCCCCC(=O)Oc1ccc2nc3ccc(=O)cc-3oc2c1C)OCCCCCCCCCCCC (racemic) [Example 28, 1,2-0-Dilauryl-rac-glycero-3-tetradecandiacid (6-methylresorufin) ester] | Esterase sensitivity [2]: 0.7 mE/min; Lipase sensitivity (lipase (EC 3.1.1.3) [3]; [6]): 23.6 mE/min per 100 U/1; blank [4, 6]: 0.2 mE/min
12 | – | – | – | CCCCCCCCCCCCOCC(COC(=O)CCCC(=O)Oc1ccc2nc3ccc(=O)cc-3oc2c1C)OCCCCCCCCCCCC (racemic) [Example 29, 1,2-0-Dilauryl-rac-qlycero-3-glutaric-acid (6-methyl-resorufin)-ester] | blank [4, 7]: 0.4 mE/min; Lipase sensitivity (lipase (EC 3.1.1.3) [5]; [7]): 28 mE/min per 100 U/l
13 | – | – | – | CCCCCCCCCCCCOCC(COC(=O)CCCC(=O)Oc1ccc2c(C)cc(=O)oc2c1)OCCCCCCCCCCCC (racemic) [Example 31, 1,2-0-Dilauryl-rac-glycero-3-glutaric acid-(4-methylumbelliferyl)-ester] | blank [4, 8]: 0.4 mE/min; Lipase sensitivity (lipase (EC 3.1.1.3) [5]; [8]): 28 mE/min per 100 U/1
14 | – | – | – | CCCCCCCCCCCCOCC(COC(=O)CCCC(=O)Sc1ccc([N+](=O)[O-])cc1)OCCCCCCCCCCCC (racemic) [Example 32, 1,2-0-Dilauryl-rac-glycero-3-qlutaric acid-(p-nitrothiophenyl)-ester] | blank ([4]; CHES reagent pH 8.3, 405 nm): 0.3 mE/min; Lipase sensitivity (lipase (EC 3.1.1.3) [5]; CHES reagent pH 8.3, 405 nm): 12.2 mE/min per 100 U/1
15 | – | – | – | CCCCCCCCCCCCCCCCC(COCC(COC(=O)CCCC(=O)Oc1ccc2nc3ccc(=O)cc-3oc2c1C)OC)OC (racemic) [Example 33, 1-0-(2-Methoxy-octadecyl)-2-0-methyl-rac-glycero-3-glutaric acid-(6-methylresorufin) ester] | Esterase sensitivity [2]: 25.3 mE/min; Lipase sensitivity (lipase (EC 3.1.1.3) [3]; [6]): 19.0 mE/min per 100 U/1; blank [4, 6]: 8.4 mE/min
16 | – | – | – | CCCCCCCCCCCCOCC(COC(=O)CCC(=O)Oc1ccc2nc3ccc(=O)cc-3oc2c1)OCCCCCCCCCCCC (racemic) [Example 34, 1,2-0-Dilauryl-rac-glycero-3-succinic acid resorufin ester] | Lipase sensitivity (lipase (EC 3.1.1.3) [3]; [6]): 8.7 mE/min per 100 U/1
17 | – | – | – | CCCCCCCCCCCCOCC(CSC(=O)CCCC(=O)Oc1ccc2nc3ccc(=O)cc-3oc2c1C)OCCCCCCCCCCCC (racemic) [Example 36, 1,2-0-Dilauryl-rac-3-thioglycero-3-S-glutaric acid (6-methylresorufin) ester] | Esterase sensitivity [2]: 1.3 mE/min; Lipase sensitivity (lipase (EC 3.1.1.3) [3]; [6]): 4.1 mE/min per 100 U/1
18 | – | – | – | CCCCCCCCCCCCSCC(COC(=O)CCCC(=O)Oc1ccc2nc3ccc(=O)cc-3oc2c1C)SCCCCCCCCCCCC (racemic) [Example 37, 1,2-S-Dilauryl-rac-1,2-dithioglycero-3-glutaric acid (6-methylresorufin) ester] | Esterase sensitivity [2]: 3.4 mE/min; Lipase sensivity (lipase (EC 3.1.1.3) [3]; emulsion prepared as in Example 22, no lipase activity printed): 24 mE/min; blank [4, 6]: 3 mE/min
19 | 0.1 ΔmE/min | 1.8 ΔmE/min | 0.97 ΔmE/min | CCCCCCCCCCCCCCCCOC[C@H](COC(=O)CCCC(=O)Oc1ccc2nc3ccc(=O)cc-3oc2c1)OCCCCCCCCCCCCCCCC [Example 11, 1,2-O-Dihexadecyl-sn-glycero-3-glutaric acid resorufin ester] | –
20 | – | – | – | CCCCCCCCCCCCCCCCC(COC(=O)CCCC(=O)Oc1ccc2nc3ccc(=O)cc-3oc2c1C)OCCCCCCCCCCCC (stereo not shown) [Example 35] | Esterase sensitivity [2]: 1.0 mE/min; Lipase sensitivity (lipase (EC 3.1.1.3) [3]; [6]): 25.5 mE/min per 100 U/1
